Ki data for 13 molecules are collected here from patent EP0859607B1, “GUANIDINO PROTEASE INHIBITORS” (3-DIMENSIONAL PHARMACEUTICALS, INC., priority 1995, dated 1997).

One may read the Ki as the dissociation constant of the complex between target and ligand, obtained from inhibition or displacement. Low readings indicate higher affinity, high ones lower affinity.

Structures can show the parent of a compound that is named as a salt.

Holding throughout (type): biochemical
The target in one assay is T1, human α-thrombin (Homo sapiens, UniProt P00734).
T1 construct: Purified human α-thrombin was diluted into assay buffer; purchased Enzyme Research Laboratories (South Bend, Indiana)
Nature of the assay: In vitro inhibition of purified enzymes, Ki determination: thrombin. Conditions: Enzyme: Thrombin; substrate Suc-Ala-Ala-Pro-Arg-pNA 20 µM; pH 7.5, 37°C. An excerpt: (§1) Reagents: All buffer salts were obtained from Sigma Chemical Company (St. Louis, MO), and were of the highest purity available. The enzyme substrates, N-benzoyl-Phe-Val-Arg-p-nitroanilide (Sigma B7632), N-benzoyl-Ile-Glu-Gly-Arg-p-nitroanilide (Sigma B2291), N-p-tosyl-Gly-Pro-Lys-p-nitroanilide (Sigma T6140), and N-succinyl-Ala-Ala-Pro-Phe-p-nitroanilide (Sigma S7388) were all obtained from Sigma.
(§2) Human α-thrombin. human factor Xa, and human plasmin were obtained from Enzyme Research Laboratories (South Bend, Indiana). Bovine α-chymotrypsin and bovine trypsin were obtained from Sigma.
Ki Determinations: All assays are based on the ability of the test compound to inhibit the enzyme-catalyzed hydrolysis of a peptide p-nitroanilide substrate. […] The final concentration for each of the substrates is listed below. In general, substrate concentrations are lower than the experimentally determined value for Km. Test compounds are prepared as a 0.16 mg/mL solution in DMSO. Dilutions are prepared in DMSO yielding 8 final concentrations encompassing a 200-fold concentration range. Enzyme solutions are prepared at the concentrations listed below in assay buffer.
Data corresponding to less than 10% of the total substrate hydrolysis were used in the calculations. The ratio of the velocity (rate of the change in absorbance as a function of time) for a sample containing no inhibitor is divided by the velocity of a sample containing inhibitor, and is plotted as a function of inhibitor concentration. The data are fit to a linear regression, and the value of the slope of the line calculated. The inverse of the slope is the experimentally determined Ki value.
Thrombin: Thrombin activity was assessed as the ability to hydrolyze the substrate Suc-Ala-Ala-Pro-Arg-pNA. […] Final DMSO concentration was 0.3%. […] Final reagent concentrations were: [thrombin] = 0.5 nM, [Suc-Ala-Ala-Pro-Arg-pNA] = 20 µM.

In the next assay the target is T2, human Factor Xa (Homo sapiens, UniProt P00742).
T2 construct: purchased Enzyme Research Laboratories (South Bend, Indiana)
T2 sequence (P00742 235-488 limits assumed): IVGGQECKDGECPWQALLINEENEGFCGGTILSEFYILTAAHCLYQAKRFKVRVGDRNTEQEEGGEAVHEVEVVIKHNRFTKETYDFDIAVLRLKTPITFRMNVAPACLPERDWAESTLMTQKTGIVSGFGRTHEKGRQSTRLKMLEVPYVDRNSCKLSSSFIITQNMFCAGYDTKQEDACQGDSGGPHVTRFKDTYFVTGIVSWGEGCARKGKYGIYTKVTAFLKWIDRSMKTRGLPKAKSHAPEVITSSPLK
T2 sequence (P00742 41-179 partner limits assumed): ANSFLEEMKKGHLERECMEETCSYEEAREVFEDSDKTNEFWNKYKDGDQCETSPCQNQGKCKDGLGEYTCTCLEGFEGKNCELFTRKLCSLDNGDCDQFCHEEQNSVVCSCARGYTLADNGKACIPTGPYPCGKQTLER
Nature of the assay: In vitro inhibition of purified enzymes, Ki determination: factor Xa. Conditions: Enzyme: Factor Xa; substrate Bz-Ile-Glu-Gly-Arg-pNA 51 µM; pH 7.5, 37°C.
Excerpt: as §1, §2
(§3) Ki Determinations: All assays are based on the ability of the test compound to inhibit the enzyme-catalyzed hydrolysis of a peptide p-nitroanilide substrate. In a typical Ki determination, substrate is prepared in DMSO, and diluted into an assay buffer consisting of 50 mM HEPES, 200 mM NaCI, pH 7.5. The final concentration for each of the substrates is listed below. In general, substrate concentrations are lower than the experimentally determined value for Km. Test compounds are prepared as a 0.16 mg/mL solution in DMSO. Dilutions are prepared in DMSO yielding 8 final concentrations encompassing a 200-fold concentration range. […]
Factor Xa: Factor Xa activity was assessed as the ability to hydrolyze the substrate Bz-Ile-Glu-Gly-Arg-pNA. […]

The next assay concerns the target T3, bovine trypsin (Bos taurus, UniProt P00760).
T3 construct: Purified bovine trypsin was diluted into assay buffer; purchased Sigma
T3 sequence (P00760 24-246): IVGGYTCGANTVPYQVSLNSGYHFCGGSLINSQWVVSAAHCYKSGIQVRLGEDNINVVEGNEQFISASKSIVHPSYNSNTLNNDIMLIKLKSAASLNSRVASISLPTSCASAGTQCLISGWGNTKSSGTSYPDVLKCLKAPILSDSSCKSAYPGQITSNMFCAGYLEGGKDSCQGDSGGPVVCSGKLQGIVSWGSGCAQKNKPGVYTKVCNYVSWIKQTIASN
Kind of assay: In vitro inhibition of purified enzymes, Ki determination: trypsin. The following applies: Enzyme: Trypsin; substrate Bz-Phe-Val-Arg-pNA 14 µM; pH 7.5, 37°C.
Excerpt: as §1, §2
as §3, with “range. Enzyme solutions are prepared at the concentrations listed below in assay buffer.” for “range.”
Trypsin: Trypsin activity was assessed as the ability to hydrolyze the substrate Bz-Phe-Val-Arg-pNA. […]

A further assay deals with T4, bovine α-chymotrypsin (Bos taurus, UniProt P00766).
T4 construct: Purified bovine α-chymotrypsin was diluted into assay buffer; purchased Sigma
Nature of the assay: In vitro inhibition of purified enzymes, Ki determination: chymotrypsin. The following applies: Enzyme: Chymotrypsin; substrate Suc-Ala-Ala-Pro-Phe-pNA 14 µM; pH 7.5, 37°C.
Excerpt: as §1, §2, §3
Chymotrypsin: Chymotrypsin activity was assessed as the ability to hydrolyze the substrate Suc-Ala-Ala-Pro-Phe-pNA. […]

Another assay concerns the target T5, human plasmin (Homo sapiens, UniProt P00747).
T5 construct: Purified human plasmin was diluted into assay buffer; purchased Enzyme Research Laboratories (South Bend, Indiana)
Kind of assay: In vitro inhibition of purified enzymes, Ki determination: plasmin. Conditions: Enzyme: Plasmin; substrate Tos-Gly-Pro-Lys-pNA 22 µM; pH 7.5, 37°C.
Excerpt: as §1, §2
as §3, with “range. Enzyme solutions are prepared at the concentrations listed below in assay buffer.” for “range.”
Plasmin: Plasmin activity was assessed as the ability to hydrolyze the substrate Tos-Gly-Pro-Lys-pNA. […]

T5 sequence (P00747 581-810 limits assumed): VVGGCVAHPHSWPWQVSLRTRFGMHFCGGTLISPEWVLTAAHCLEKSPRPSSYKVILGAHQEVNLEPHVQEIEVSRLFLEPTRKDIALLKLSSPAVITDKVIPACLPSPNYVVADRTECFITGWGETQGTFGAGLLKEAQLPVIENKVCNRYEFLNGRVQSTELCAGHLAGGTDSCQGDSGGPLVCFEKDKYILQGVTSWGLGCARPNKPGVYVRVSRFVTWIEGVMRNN
T5 sequence (P00747 97-580 partner limits assumed): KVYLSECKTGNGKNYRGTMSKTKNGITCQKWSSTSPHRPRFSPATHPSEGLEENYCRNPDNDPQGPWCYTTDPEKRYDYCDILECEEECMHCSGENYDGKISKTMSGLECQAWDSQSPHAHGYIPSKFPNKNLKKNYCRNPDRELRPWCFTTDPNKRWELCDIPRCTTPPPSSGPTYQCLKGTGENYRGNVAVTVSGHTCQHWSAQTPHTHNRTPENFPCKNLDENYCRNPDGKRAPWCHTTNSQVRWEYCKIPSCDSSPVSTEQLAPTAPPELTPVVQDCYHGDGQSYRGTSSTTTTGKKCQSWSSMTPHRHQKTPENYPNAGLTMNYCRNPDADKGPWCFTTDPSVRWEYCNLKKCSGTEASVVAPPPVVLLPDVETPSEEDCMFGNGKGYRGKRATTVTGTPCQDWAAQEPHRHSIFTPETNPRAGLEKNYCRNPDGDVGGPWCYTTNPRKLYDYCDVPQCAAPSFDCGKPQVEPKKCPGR

In turn, “2-Chlorobenzenesulfonic acid 3-[[1-(aminoiminomethyl)piperidin-4-yl]methoxy]-5-hydroxymethylphenylester [Example 44]” yielded a Ki at human α-thrombin of 6900 nM. The same measure, in the same setting: the same measure for “Benzenesulfonic acid 3-[[1-(aminoiminomethyl)piperidin-4-yl]methoxy]-5-methylphenyl ester acetic acid salt [Example 17]”: 36 nM. “2-Chlorobenzenesulfonic acid 3-[[1-(aminoiminomethyl)piperidin-3-yl]methoxy]-5-methylphenyl ester [Example 4]” displayed a Ki on human Factor Xa of 58100 nM.

In the case of “2,3-Dichlorobenzenesulfonic acid 3-[[1-(aminoiminomethyl)piperidin-4-yl]methoxy]-5-methylphenyl ester hydrochloride [Example 42]”, the affinity on human α-thrombin, expressed as Ki, was 21 nM.

For the molecule “2-Chlorobenzenesulfonic acid, 3-[[1-(aminoiminomethyl)piperidin-4-yl]methoxy]-5-methylphenyl ester [Example 3]”, on human α-thrombin, the affinity, expressed as Ki, was 8 nM. In the case of `N=C(N)N1CCC(CNc2cccc(N(Cc3ccccc3)S(=O)(=O)c3ccccc3)c2)CC1` [Example 11, N-benzyl-N-[[3-(1-aminoiminomethyl)-piperidin-4-ylmethylamino]phenyl]benzenesulfonamide], the Ki on bovine trypsin was 5300 nM.

Consider “2-Trifluoromethylbenzenesulfonic acid 3-[[1-(aminoiminomethyl)piperidin-4-yl]methoxy]-5-methylphenyl ester acetic acid salt [Example 38]”, for which the inhibitory constant (Ki) at human α-thrombin was determined as 19 nM.

On to “3-Amino-2-chlorobenzenesulfonic acid 3-[[1-(aminoiminomethyl)piperidin-4-yl]methoxy]-5-methylphenyl ester dihydrochloride [Example 33]”, for which the Ki at human α-thrombin was 34 nM. In the case of “2-Chlorobenzenesulfonic acid 3-[[1-(aminoiminomethyl)piperidin-4-yl]methoxy]phenyl ester [Example 1]”, on human α-thrombin, the Ki was 250 nM.

At bovine α-chymotrypsin, `N=C(N)N1CCC(COc2cc(OS(=O)(=O)c3ccccc3Cl)ccc2Cc2ccccc2)CC1` [Example 12, 2-Chlorobenzenesulfonic acid 3-[[1-aminoiminomethyl)piperidin-4-yl]methoxy]-4-benzylphenyl ester acetic acid salt] yielded a Ki of 12600 nM.

For the molecule “2-Chlorobenzenesulfonic acid 3-[2-[1-(aminoiminomethyl)piperazin-4-yl]ethoxy]-5-methylphenyl ester diacetic acid salt [Example 6]”, on human α-thrombin, the Ki stood at 330 nM. For `N=C(N)N1CCN(CCOc2cccc(OS(=O)(=O)c3ccccc3Cl)c2)CC1` [Example 5, 2-Chlorobenzenesulfonic acid 3-[2-[1-(aminoiminomelhyl)piperazin-4-yl]ethoxy]phenyl ester diacetic acid salt], the Ki on human plasmin is 29200 nM. Take “2-Chlorobenzenesulfonic acid 3-[[1-(aminoiminomethyl)piperidin-4-yl]methoxy]-5-chlorophenyl ester hydrochloride [Example 24]”: on human α-thrombin, the Ki turned out to be 40 nM.
